Literature values as cited in US6656217B1, “Medical device coated with a polymer containing a nitric oxide releasing organometallic nitrosyl compound useful for the prevention of platelet aggregation” (NovoVascular, Inc., priority 1996, dated 2003).

Tested on: platelet aggregation

## [Cl][Ru]([Cl])[Cl].[N-]=O [ruthenium nitrosyl trichioride]
  inhibition of platelet aggregation by nitric oxide generation from light activation: failed to inhibit platelet aggregation
